The subject of experiment [1] is CA40_1MM (DNA, aptamer) ACGCTCCGGACTTGGGTGGGTGGGTTGGGGTACGGTGTGT
In words: E-AB sensor, square-wave voltammetry. As to conditions: working buffer; apparent; surface-bound.

The test system of experiment [2] is CA40_2MM (DNA, aptamer) ACGCTCTGGACTTGGGTGGGTGGGTTGGGGTACGGTGTGT
The experiment is described as follows: E-AB sensor, square-wave voltammetry. The following applies: working buffer; apparent; surface-bound.

The test system of experiment [3] is CA36 (DNA, aptamer) GCTCCGGACTTGGGTGGGTGGGTTGGGGTACGGTGC
The experiment is described as follows: E-AB sensor, square-wave voltammetry. As to conditions: working buffer; apparent; surface-bound.

In experiment [4] the test system is CA32 (DNA, aptamer) TCCGGACTTGGGTGGGTGGGTTGGGGTACGGT
In words: E-AB sensor, square-wave voltammetry. As to conditions: working buffer; apparent; surface-bound.

Experiment [5] has as its system CA28 (DNA, aptamer) CGGACTTGGGTGGGTGGGTTGGGGTACG
The experiment is described as follows: E-AB sensor, square-wave voltammetry. As to conditions: working buffer; apparent; surface-bound; KD fixed in fit.

Experiment [6] has as its system CA16 (DNA, G4) GGGTGGGTGGGTTGGG
The experiment is described as follows: E-AB sensor, square-wave voltammetry. As to conditions: working buffer; apparent; surface-bound; KD fixed in fit.

The subject of experiment [7] is CA40 (DNA, aptamer) ACGCTCCGGACTTGGGTGGGTGGGTTGGGGTACGGTGCGT
In words: fluorescence titration (intrinsic irinotecan fluorescence). As to conditions: working buffer; 1 µM irinotecan titrated with aptamer; excitation 370 nm.

For experiment [8], the system named is CA32 (DNA, aptamer) TCCGGACTTGGGTGGGTGGGTTGGGGTACGGT
In words: E-AB sensor, kinetic differential measurement (10 and 120 Hz). As to conditions: buffer; apparent; co-deposited 1:1 with linear probe; surface-bound.

Each structure is given as a SMILES string.

Regarding `CCc1c2c(nc3ccc(OC(=O)N4CCC(N5CCCCC5)CC4)cc13)-c1cc3c(c(=O)n1C2)COC(=O)[C@]3(O)CC`, the binding entry in experiment [1], in experiment [2], in experiment [3], in experiment [4], in experiment [5] and in experiment [6] was “yes” throughout. In addition, the values for the KD in experiment [7] and in experiment [8] were 0.475 ± 0.01 µM and 16.0 ± 1.3 µM, respectively.

Source of the values: PMC6788505 (2019).
